Target: T1, catalytic domain of Human PARP (Homo sapiens, UniProt P09874)
T1 construct: The catalytic domain of Human PARP was cloned and prepared; made in house
Assay: Biacore surface plasmon resonance affinity assay
Format: binding
Settings: pKD=-log10 KD, KD in mol/L; Biacore T100, 25° C.; read-out: pKD (converted)
Experimental: Dissociation Constant (KD) from Surface Plasmon Resonance
The catalytic domain of Human PARP was cloned and prepared as described in Kinoshita, et al. FEBS Letters (2006), 556:43-46. Purified enzyme was stored at −80° C. in 25 mM Tris(hydroxymethyl)aminomethane (‘Tris’) pH 7.4, 150 mM NaCl, 2 mM dithiothreitol (DTT) at a concentration of 6 mg/mL.
Biacore affinity assays for test compounds were conducted on a Biacore T100 (GE Healthcare) as follows. A Series S Sensor Chip CM5 (part number BR-1006-68, GE Healthcare) was activated for amide coupling with an Amine Coupling Kit (part number BR-1000-50, GE Healthcare) as described by the manufacturer. The mobile phase buffer consisted of Biacore buffer HBS-P (part number BR-1003-68, GE Healthcare) supplemented with 1% v/v dimethylsulfoxide (DMSO), 0.5 mM Tris(2-carboxyethyl)phosphine hydrochloride (TCEP), and 5 mM MgCl2. Enzyme samples (2 μL/6 mg/mL) stored at −80° C. were diluted to 0.080 mg/mL with 10 mM 4-morpholineethanesulfonic acid (MES) pH 6.5 and then mounted on the activated Biacore CM5 chip at a flow rate of 10 μL/min for 240 seconds. […] Test compounds were diluted 9 times 2-fold serially in mobile phase buffer (listed above) at 1% v/v DMSO final to generate a concentration gradient bracketing their anticipated KDs. Biacore mounted PARP was given a 1 minute exposure (association phase) to various concentrations of test compounds to observe a steady state equilibrium or an on-rate. The exposure was followed with a dissociation phase of 5 minutes. The association and dissociation phases were at a flow rate of 50 μL/min and a temperature of 25° C.
Parameters Rmax (response at saturation) and KD (binding constant) were calculated through a nonlinear least squares fitting of the equation to the data by use of the Biacore T100 analysis software.
Parameter optimization was through a nonlinear least squares analysis of the association phase Response=Rmax*(1−exp(−(kon[cmpd]+koff)*t)) and dissociation phase Response=[…] by use of the Biacore T100 analysis software. The binding constant KD was calculated from the definition KD=koff/kon

T1 sequence (P09874 788-1014 limits assumed): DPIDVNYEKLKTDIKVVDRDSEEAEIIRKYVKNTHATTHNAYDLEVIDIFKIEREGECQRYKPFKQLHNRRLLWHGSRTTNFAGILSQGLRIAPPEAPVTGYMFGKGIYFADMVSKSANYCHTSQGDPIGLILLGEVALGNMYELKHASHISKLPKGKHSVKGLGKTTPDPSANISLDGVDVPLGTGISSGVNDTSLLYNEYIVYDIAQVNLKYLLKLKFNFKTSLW

SMILES	Kd
O=C1Nc2cc(CN3CC=C(c4ccccc4)CC3)ccc2OC1F (stereo not drawn) [Compound 100, 2-Fluoro-6-((4-phenyl-5,6-dihydropyridin-1(2H)-yl)methyl)-2H-benzo[b][1,4]oxazin-3(4H)-one]	0.0126 to 0.1 µM
CCOC(=O)CN1CCN(Cc2ccc3c(c2)NC(=O)C(C)O3)CC1 (stereo not drawn) [Compound 102, Ethyl 2-(4-((2-methyl-3-oxo-3,4-dihydro-2H-benzo[b][1,4]oxazin-6-yl)methyl)piperazin-1-yl)acetate]	1.26 to 10 µM
O=C1COc2ccc(C(=O)O)cc2N1 [Compound 104, 3-Oxo-3,4-dihydro-2H-benzo[b][1,4]oxazine-6-carboxylic acid]	≥ 100 µM
O=C1COc2ccc(C(=O)N3CCC(c4ccccc4)CC3)cc2N1 [Compound 105, 6-(4-phenylpiperidine-1-carbonyl)-2H-benzo[b][1,4]oxazin-3(4H)-one]	≥ 100 µM
CN(C)C1CCN(C(=O)c2ccc3c(c2)NC(=O)CO3)CC1 [Compound 106, 6-(4-(Dimethylamino)piperidine-1-carbonyl)-2H-benzo[b][1,4]oxazin-3(4H)-one]	≥ 100 µM
O=C1COc2ccc(C(=O)NCc3ccccc3)cc2N1 [Compound 107, N-Benzyl-3-oxo-3,4-dihydro-2H-benzo[b][1,4]oxazine-6-carboxamide]	≥ 100 µM
O=C1COc2ccc(C(=O)NCC3CCCCC3)cc2N1 [Compound 108, N-(Cyclohexylmethyl)-3-oxo-3,4-dihydro-2H-benzo[b][1,4]oxazine-6-carboxamide]	≥ 100 µM
O=C1COc2ccc(C(=O)N3CCOCC3)cc2N1 [Compound 109, 6-(Morpholine-4-carbonyl)-2H-benzo[b][1,4]oxazin-3(4H)-one]	1.26 to 10 µM
O=C1COc2ccc(C(=O)Nc3ccccc3)cc2N1 [Compound 110, 3-Oxo-N-phenyl-3,4-dihydro-2H-benzo[b][1,4]oxazine-6-carboxamide]	≥ 100 µM
O=C1COc2ccc(C(=O)NC3CCCCC3)cc2N1 [Compound 111, N-Cyclohexyl-3-oxo-3,4-dihydro-2H-benzo[b][1,4]oxazine-6-carboxamide]	≥ 100 µM
O=C1COc2ccc(C(=O)CN3CCOCC3)cc2N1 [Compound 112, 6-(2-morpholinoacetyl)-2H-benzo[b][1,4]oxazin-3(4H)-one]	≥ 100 µM
CN(C)C1CCN(CC(=O)c2ccc3c(c2)NC(=O)CO3)CC1 [Compound 113, 6-(2-(4-(Dimethylamino)piperidin-1-yl)acetyl)-2H-benzo[b][1,4]oxazin-3(4H)-one]	≥ 100 µM
O=C1COc2ccc(C(=O)CN3CCC(c4ccccc4)CC3)cc2N1 [Compound 114, 6-(2-(4-Phenylpiperidin-1-yl)acetyl)-2H-benzo[b][1,4]oxazin-3(4H)-one]	12.6 to 79.4 µM
O=C1COc2ccc(S(=O)(=O)N3CCCCC3)cc2N1 [Compound 115, 6-(piperidin-1-ylsulfonyl)-2H-benzo[b][1,4]oxazin-3(4H)-one]	≥ 100 µM
O=C1COc2ccc(S(=O)(=O)N3CCOCC3)cc2N1 [Compound 116, 6-(Morpholinosulfonyl)-2H-benzo[b][1,4]oxazin-3(4H)-one]	12.6 to 79.4 µM
O=C1COc2ccc(S(=O)(=O)N3CCCC3)cc2N1 [Compound 117, 6-(Pyrrolidin-1-ylsulfonyl)-2H-benzo[b][1,4]oxazin-3(4H)-one]	1.26 to 10 µM
CC1Oc2ccc(S(=O)(=O)N3CCOCC3)cc2NC1=O (stereo not drawn) [Compound 118, 2-Methyl-6-(morpholinosulfonyl)-2H-benzo[b][1,4]oxazin-3(4H)-one]	1.26 to 10 µM
CC1Oc2ccc(S(=O)(=O)N3CCCCC3)cc2NC1=O (stereo not drawn) [Compound 119, 2-Methyl-6-(piperidin-1-ylsulfonyl)-2H-benzo[b][1,4]oxazin-3(4H)-one]	12.6 to 79.4 µM
CC1Oc2ccc(S(=O)(=O)N3CCCC3)cc2NC1=O (stereo not drawn) [Compound 120, 2-Methyl-6-(pyrrolidin-1-ylsulfonyl)-2H-benzo[b][1,4]oxazin-3(4H)-one]	≥ 100 µM
CC1Oc2ccc(S(=O)(=O)N3CCC(c4ccccc4)CC3)cc2NC1=O (stereo not drawn) [Compound 121, 2-Methyl-6-(4-phenylpiperidin-1-ylsulfonyl)-2H-benzo[b][1,4]oxazin-3(4H)-one]	> 1 µM

SMILES	Kd
CCc1ccc2c(c1)NC(=O)CO2 [Compound 122, 6-Ethyl-2H-benzo[b][1,4]oxazin-3(4H)-one]	≥ 100 µM
O=C1COc2ccc(CCN3CCC(c4ccccc4)CC3)cc2N1 [Compound 125, 6-(2-(4-Phenylpiperidin-1-yl)ethyl)-2H-benzo[b][1,4]oxazin-3(4H)-one]	12.6 to 79.4 µM
O=C1COc2ccc(CCN3CC=C(c4ccc(F)cc4)CC3)cc2N1 [Compound 126, 6-(2-(4-(4-Fluorophenyl)-5,6-dihydropyridin-1(2H)-yl)ethyl)-2H-benzo[b][1,4]oxazin-3(4H)-one]	1.26 to 10 µM
O=C1COc2ccc(CCN3CC=C(c4ccc(Cl)cc4)CC3)cc2N1 [Compound 127, 6-(2-(4-(4-Chlorophenyl)-5,6-dihydropyridin-1(2H)-yl)ethyl)-2H-benzo[b][1,4]oxazin-3(4H)-one]	1.26 to 10 µM
O=C1COc2ccc(CCN3CCN(c4ccncc4)CC3)cc2N1 [Compound 128, 6-(2-(4-(Pyridin-4-yl)piperazin-1-yl)ethyl)-2H-benzo[b][1,4]oxazin-3(4H)-one]	12.6 to 79.4 µM
O=C1COc2ccc(CCN3CCN(c4nc5ccccc5[nH]4)CC3)cc2N1 [Compound 129, 6-(2-(4-(1H-Benzo[d]imidazol-2-yl)piperazin-1-yl)ethyl)-2H-benzo[b][1,4]oxazin-3(4H)-one]	12.6 to 79.4 µM
O=C1COc2ccc(CCN3CCC(c4ccc(F)cc4)CC3)cc2N1 [Compound 130, 6-(2-(4-(4-Fluorophenyl)piperidin-1-yl)ethyl)-2H-benzo[b][1,4]oxazin-3(4H)-one]	1.26 to 10 µM
O=C1COc2ccc(CCN3CCC(c4ccc(Cl)cc4)CC3)cc2N1 [Compound 131, 6-(2-(4-(4-Chlorophenyl)piperidin-1-yl)ethyl)-2H-benzo[b][1,4]oxazin-3(4H)-one]	1.26 to 10 µM
CC1Oc2ccc(CN(C)CC(=O)O)cc2NC1=O (stereo not drawn) [Compound 132, 2-(Methyl((2-methyl-3-oxo-3,4-dihydro-2H-benzo[b][1,4]oxazin-6-yl)methyl)amino)acetic acid]	1.26 to 10 µM
CC1Oc2ccc(CN(C)CC(=O)NCc3ccccc3)cc2NC1=O (stereo not drawn) [Compound 134, N-Benzyl-2-(methyl((2-methyl-3-oxo-3,4-dihydro-2H-benzo[b][1,4]oxazin-6-yl)methyl)amino)acetamide]	1.26 to 10 µM
CC1Oc2ccc(CN(C)CC(=O)N(C)Cc3ccccc3)cc2NC1=O (stereo not drawn) [Compound 135, N-Benzyl-N-methyl-2-(methyl((2-methyl-3-oxo-3,4-dihydro-2H-benzo[b][1,4]oxazin-6-yl)methyl)amino)acetamide]	12.6 to 79.4 µM
CC1Oc2ccc(CN(C)CC(=O)NCc3ccc(Cl)cc3)cc2NC1=O (stereo not drawn) [Compound 136, N-(4-Chlorobenzyl)-2-(methyl((2-methyl-3-oxo-3,4-dihydro-2H-benzo[b][1,4]oxazin-6-yl)methyl)amino)acetamide]	1.26 to 10 µM
CC1Oc2ccc(CN(C)CC(=O)N(C)Cc3ccc(Cl)cc3)cc2NC1=O (stereo not drawn) [Compound 137, N-(4-Chlorobenzyl)-N-methyl-2-(methyl((2-methyl-3-oxo-3,4-dihydro-2H-benzo[b][1,4]oxazin-6-yl)methyl)amino)acetamide]	≥ 100 µM
CC1Oc2ccc(CN(C)CC(=O)N3CCCCC3)cc2NC1=O (stereo not drawn) [Compound 138, 2-Methyl-6-((methyl(2-oxo-2-(piperidin-1-yl)ethyl)amino)methyl)-2H-benzo[b][1,4]oxazin-3(4H)-one]	12.6 to 79.4 µM
CC1Oc2ccc(CN(C)CC(=O)NCC3CCCCC3)cc2NC1=O (stereo not drawn) [Compound 140, N-(Cyclohexylmethyl)-2-(methyl((2-methyl-3-oxo-3,4-dihydro-2H-benzo[b][1,4]oxazin-6-yl)methyl)amino)acetamide]	1.26 to 10 µM
CC1Oc2ccc(-c3cccc(C(=O)O)c3)cc2NC1=O (stereo not drawn) [Compound 141, 3-(2-methyl-3-oxo-3,4-dihydro-2H-benzo[b][1,4]oxazin-6-yl)benzoic acid]	1.26 to 10 µM
CC1Oc2ccc(-c3cccc(C(N)=O)c3)cc2NC1=O (stereo not drawn) [Compound 142, 3-(2-Methyl-3-oxo-3,4-dihydro-2H-benzo[b][1,4]oxazin-6-yl)benzamide]	1.26 to 10 µM
CNC(=O)c1cccc(-c2ccc3c(c2)NC(=O)C(C)O3)c1 (stereo not drawn) [Compound 143, N-Methyl-3-(2-methyl-3-oxo-3,4-dihydro-2H-benzo[b][1,4]oxazin-6-yl)benzamide]	> 10 µM
CCNC(=O)c1cccc(-c2ccc3c(c2)NC(=O)C(C)O3)c1 (stereo not drawn) [Compound 144, N-Ethyl-3-(2-methyl-3-oxo-3,4-dihydro-2H-benzo[b][1,4]oxazin-6-yl)benzamide]	12.6 to 79.4 µM

— patent US8669249B2, “Poly (ADP-ribose) polymerase (PARP) inhibitors” (Takeda Pharmaceutical Company Limited, priority 2009, dated 2014)
